Test results from patent publication US6492365B1, “Microsomal triglyceride transfer protein” (Bristol-Myers Squibb Company, priority 1992, dated 2002).
Structures can show the parent of a compound that is named as a salt.

Molecular target: T1, bovine MTP (Bos taurus, UniProt P55156)
T1 construct: with about 50-200 ng purified MTP in the well of a 96-well plate; from tissue; host or cells: bovine liver
T1 sequence (P55156 12-887): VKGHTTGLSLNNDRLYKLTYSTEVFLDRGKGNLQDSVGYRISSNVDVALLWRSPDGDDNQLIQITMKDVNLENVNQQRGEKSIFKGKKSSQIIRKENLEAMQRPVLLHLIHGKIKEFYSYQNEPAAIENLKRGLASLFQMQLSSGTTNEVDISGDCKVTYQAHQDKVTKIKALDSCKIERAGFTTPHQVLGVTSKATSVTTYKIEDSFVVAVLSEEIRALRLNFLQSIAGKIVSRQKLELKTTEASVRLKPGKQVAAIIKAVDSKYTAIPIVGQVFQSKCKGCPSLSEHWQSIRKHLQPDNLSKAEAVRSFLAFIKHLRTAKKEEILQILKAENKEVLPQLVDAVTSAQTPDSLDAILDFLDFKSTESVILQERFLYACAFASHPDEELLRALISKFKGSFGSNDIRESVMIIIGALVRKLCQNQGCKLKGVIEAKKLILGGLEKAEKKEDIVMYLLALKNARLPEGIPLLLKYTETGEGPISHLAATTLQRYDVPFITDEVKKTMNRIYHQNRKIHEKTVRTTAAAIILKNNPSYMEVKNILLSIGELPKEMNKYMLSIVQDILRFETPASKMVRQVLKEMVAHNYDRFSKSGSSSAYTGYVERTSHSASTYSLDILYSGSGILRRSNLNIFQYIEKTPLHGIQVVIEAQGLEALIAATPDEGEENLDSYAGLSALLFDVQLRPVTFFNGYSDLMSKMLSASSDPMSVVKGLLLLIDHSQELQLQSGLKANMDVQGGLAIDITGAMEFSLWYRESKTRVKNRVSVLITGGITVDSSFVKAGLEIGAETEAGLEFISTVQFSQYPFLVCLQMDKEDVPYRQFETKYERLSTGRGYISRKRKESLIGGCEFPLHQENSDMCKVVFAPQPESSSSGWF
T1 sequence (P05307 21-510 partner): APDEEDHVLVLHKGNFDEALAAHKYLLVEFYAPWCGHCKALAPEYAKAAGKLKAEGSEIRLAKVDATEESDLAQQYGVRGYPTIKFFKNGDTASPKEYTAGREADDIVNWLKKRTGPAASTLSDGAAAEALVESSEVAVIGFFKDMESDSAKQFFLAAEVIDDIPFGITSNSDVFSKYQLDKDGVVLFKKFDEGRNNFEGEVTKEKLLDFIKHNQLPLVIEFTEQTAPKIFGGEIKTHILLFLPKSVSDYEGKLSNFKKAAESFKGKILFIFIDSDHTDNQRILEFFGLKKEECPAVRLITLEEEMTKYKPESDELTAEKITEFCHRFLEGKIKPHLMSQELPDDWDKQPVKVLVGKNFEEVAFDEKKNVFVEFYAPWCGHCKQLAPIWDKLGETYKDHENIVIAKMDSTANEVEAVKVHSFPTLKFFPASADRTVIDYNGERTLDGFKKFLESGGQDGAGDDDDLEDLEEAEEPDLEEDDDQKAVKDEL
Experiment: MTP-catalyzed transport of 14C-CE from donor SUV to acceptor SUV
Format: biochemical
Method: To measure the effect of compound A on bovine MTP-catalyzed transport of CE or PC between membranes, the lipid transfer assay which measures TG transfer between SUV was modified. The composition of the donor vesicles was the same, except 0.25 mol% ^14C-CE or ^14C-PC replaced the labeled TG. The composition of the acceptor vesicles were the same, except labeled PC and unlabeled TG were not included. Following precipitation of donor vesicles, the percentage of lipid transfer was calculated by comparing the ^14C-CE or -PC in the acceptor vesicles in the supernatant following a transfer reaction to the total ^14C-CE or -PC in the assay. The labeled lipid in the supernatant in the absence of MTP was subtracted from the labeled lipid in the presence MTP to calculate the MTP-catalyzed lipid transfer from donor SUV to acceptor SUV. The remainder of the assay was essentially as described previously.

Structure (SMILES): O=C1c2ccccc2CN1C1CCN(CCC(c2ccccc2)c2ccccc2)CC1 [compound A, 2-[1-(3,3-diphenylpropyl)-4-piperdinyl]-2,3-dihydro-3-oxo-1H-isoindole hydrochloride]
- decrease of CE transfer (at concentrations that inhibited approximately 40% of PC transfer): more than 80%
- inhibition of CE transfer (result in words): comparable to its inhibition of TG transfer
